This note sets out measurements from US9012412B2, “Dual SGLT1/SGLT2 inhibitors” (Janssen Pharmaceutica NV, priority 2013, dated 2015).

One experiment deals with T1, human SGLT2 (Homo sapiens, UniProt P31639).
T1 construct: expressed in transfected cells
T1 sequence (P31639 1-672): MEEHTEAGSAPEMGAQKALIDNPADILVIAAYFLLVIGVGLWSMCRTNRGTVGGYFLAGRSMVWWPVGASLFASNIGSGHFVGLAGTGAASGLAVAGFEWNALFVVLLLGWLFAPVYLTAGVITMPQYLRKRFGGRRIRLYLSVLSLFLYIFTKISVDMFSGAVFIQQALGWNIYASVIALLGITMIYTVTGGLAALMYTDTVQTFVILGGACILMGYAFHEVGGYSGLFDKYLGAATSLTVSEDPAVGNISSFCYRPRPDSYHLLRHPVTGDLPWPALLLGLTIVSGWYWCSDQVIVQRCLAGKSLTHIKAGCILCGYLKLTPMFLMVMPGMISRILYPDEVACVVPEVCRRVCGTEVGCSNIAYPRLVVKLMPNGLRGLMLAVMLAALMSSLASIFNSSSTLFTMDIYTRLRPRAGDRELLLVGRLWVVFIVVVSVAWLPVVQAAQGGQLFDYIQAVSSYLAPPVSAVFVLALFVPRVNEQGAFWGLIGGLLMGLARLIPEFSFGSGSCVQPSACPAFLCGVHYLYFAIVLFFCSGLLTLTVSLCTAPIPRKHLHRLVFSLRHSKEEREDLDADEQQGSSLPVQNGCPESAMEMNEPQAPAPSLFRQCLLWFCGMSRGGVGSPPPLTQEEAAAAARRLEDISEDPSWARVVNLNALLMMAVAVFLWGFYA
The experiment in a line: Sodium-dependent 14C-methyl-α-D-glucopyranoside uptake in CHO-K1 cells stably expressing human SGLT2. The note with it: for IC50: 14C-methyl-α-D-glucopyranoside uptake; for inhibition at 3 µM: compound at 3 μM; for inhibition at 0.3 µM: compound at 0.3 μM. Type of experiment: cell-based. As for the experimental part: (§1) SGLT1 and SGLT2 were cloned in form of cDNA from human small intestine (Genbank M24847), and from human kidney (Genbank M95549), respectively. Subsequently, each full cDNA was subcloned into pcDNA with each construct's integrity verified through follow-on sequencing. To generate CHO-K1 cells that stably express human SGLT1 or human SGLT2 CHO-K1 cells were transfected using DMRIE-C reagent (Life Technologies, Gaithersburg, Md.). Transfected cells were then selected in the presence of 500 μg/ml of the antibiotic G418 (Gibco-BRL, Grand Island, N.Y.). Individual clones were then characterized using the following cell-based assay for sodium-dependent glucose transport.
(§2) First, cell lines stably expressing human SGLT1 or SGLT2 were seeded at a density of 65,000 cells per well per 200 μl cell culture medium with 10 mM of NaButyrate (Aldrich Catalog No. 30341-0) in a 96-well flat bottom plate (COSTAR, Catalog No. 3903). For human SGLT1 or SGLT2 expressing CHO-K1 cells the culture medium comprised Ham's F-12 (Invitrogen Catalog No. 31765), Fetal Bovine Serum (Invitrogen Catalog No. 16000), G418 (Geneticin, Cellgro Catalog No. 30234-CI), Phlorizidin (Sigma Catalog No. P3449), DPBS (Cellgro Catalog No. 21030-CV), ^14C-methyl-α-D-glucopyranoside (Amersham Catalog No. CFB 76), and Methyl-α-D-glucopyranoside (Sigma Catalog No. M-9376).
(§3) The cells were allowed to incubate for 24 hours. Subsequently, the medium was aspirated from the plates and the cells were washed one time with 150 μl assay buffer and incubate 15 min with another 150 μl assay buffer which comprised 50 mM HEPES pH 7.4, 20 mM Tris Base, 5 mM KCl, 1 mM MgCl2, 1 mM CaCl2, and 137 mM NaCl. After removing the wash buffer, 40 μl assay buffer and 10 μl compound solution was added to each well, which was again allowed to incubate for 10 min.
(§4) Following the 10 min incubation, 10 μl of serial diluted Methyl-α-D-glucopyranoside (Sigma Catalog No. M-9376) containing 0.07 μCi ^14C-methyl-α-D-glucopyranoside (Amersham Catalog No. CFB 76) was added to the appropriate well and allowed to incubate for another 2 hours. ^14C-methyl-α-D-glucopyranoside (Sigma Catalog No. M-9376, St. Louis, Mo.) is a non-metabolizable glucose analog specific for sodium-dependent glucose transporters as previously described by H. Peng and J. E. Lever in “Post-transcriptional regulation of Na+/glucose cotransporter (SGLT1) gene expression in LLC-PK1 cells,” J. Biol. Chem. 270, 20536-42 (1995).
(§5) Next, the plates were twice washed with 150 μl of ice-cold DPBS (Cellgro Catalog No. 21030) that was then completely removed from the plates before adding 50 μl of MicroScint™-20 (Packard Catalog No. 6013621) to each well for a 20 min or longer incubation time.
(§6) Sodium-dependent ^14C-methyl-α-D-glucopyranoside uptake was quantified by measuring radioactivity. Plates were counted in a TopCount (Packard, Meriden, Conn.). Results are reported as the %-inhibition or IC50 value from a representative experiment. Variability for the functional assay was typically within 20%.

Another experiment addresses T2, human SGLT1 (Homo sapiens, UniProt P13866).
T2 construct: expressed in transfected cells
T2 sequence (P13866 1-664): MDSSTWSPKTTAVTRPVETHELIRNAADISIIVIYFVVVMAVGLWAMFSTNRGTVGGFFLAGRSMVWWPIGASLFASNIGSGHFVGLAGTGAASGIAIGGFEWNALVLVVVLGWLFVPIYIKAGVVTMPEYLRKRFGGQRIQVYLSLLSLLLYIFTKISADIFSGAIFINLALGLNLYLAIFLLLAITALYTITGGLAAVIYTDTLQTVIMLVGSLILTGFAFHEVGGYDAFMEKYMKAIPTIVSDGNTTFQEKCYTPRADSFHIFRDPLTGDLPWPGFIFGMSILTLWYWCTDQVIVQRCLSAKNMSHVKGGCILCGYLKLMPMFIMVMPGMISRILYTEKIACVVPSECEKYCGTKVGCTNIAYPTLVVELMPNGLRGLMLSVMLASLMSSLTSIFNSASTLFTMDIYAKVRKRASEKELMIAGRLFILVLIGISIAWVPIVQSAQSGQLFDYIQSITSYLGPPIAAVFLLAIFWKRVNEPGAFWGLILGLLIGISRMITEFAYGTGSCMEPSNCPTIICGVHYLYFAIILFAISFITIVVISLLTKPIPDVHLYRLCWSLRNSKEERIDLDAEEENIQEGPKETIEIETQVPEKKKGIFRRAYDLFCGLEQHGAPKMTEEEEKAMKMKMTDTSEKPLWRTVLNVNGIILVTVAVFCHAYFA
The experiment in a line: Sodium-dependent 14C-methyl-α-D-glucopyranoside uptake in CHO-K1 cells stably expressing human SGLT1. The note with it: for IC50: 14C-methyl-α-D-glucopyranoside uptake; for inhibition at 3 µM: compound at 3 μM. Type of experiment: cell-based. As for the experimental part: as §1, §2, §3, §4, §5, §6

Bounds are passed on as bounds.

Usually IC50 stands for the midpoint of a concentration-inhibition curve. Low readings indicate greater potency in that assay, high ones weaker potency in that assay. As to `Cc1cc(O)c([C@@H]2O[C@H](CO)C[C@H](O)[C@H]2O)cc1Cc1cc2ccccc2s1` [Cpd 1, (2S,3R,4S,6S)-2-(5-(benzo[b]thiophen-2-ylmethyl)-2-hydroxy-4-methylphenyl)-6-(hydroxymethyl)tetrahydro-2H-pyran-3,4-diol], the half-maximal inhibitory concentration (IC50) at human SGLT2 worked out at 16 nM; against human SGLT1, 117 nM.

On to `COc1cc(O)c([C@@H]2O[C@H](CO)C[C@H](O)[C@H]2O)cc1Cc1cc2ccccc2s1` [Cpd 2, (2S,3R,4S,6S)-2-(5-(benzo[b]thiophen-2-ylmethyl)-2-hydroxy-4-methoxyphenyl)-6-(hydroxymethyl)tetrahydro-2H-pyran-3,4-diol], for which the IC50 against human SGLT2 was found to be 114 nM; at human SGLT1, 155 nM.

Consider `OC[C@@H]1C[C@H](O)[C@@H](O)[C@H](c2cc(Cc3cc4ccccc4s3)c(Cl)cc2O)O1` [Cpd 3, (2S,3R,4S,6S)-2-(5-(benzo[b]thiophen-2-ylmethyl)-4-chloro-2-hydroxyphenyl)-6-(hydroxymethyl)tetrahydro-2H-pyran-3,4-diol], for which the results for the IC50 at human SGLT2 and against human SGLT1 were 22 nM and 115 nM, respectively.

Regarding `OC[C@@H]1C[C@H](O)[C@@H](O)[C@H](c2cc(Cc3cc4ccccc4s3)c(F)cc2O)O1` [Cpd 4, (2S,3R,4S,6S)-2-(5-(benzo[b]thiophen-2-ylmethyl)-4-fluoro-2-hydroxyphenyl)-6-(hydroxymethyl)-tetrahydro-2H-pyran-3,4-diol], the IC50 at human SGLT2 was 128 nM; against human SGLT1, 893 nM.

The term inhibition denotes the share of the control response that was lost under treatment. A lower inhibition goes with little suppression. For the molecule `COc1cc(O)c([C@@H]2O[C@H](CO)C[C@H](O)[C@H]2O)cc1C(=O)c1cc2ccccc2s1` [Cpd 5, benzo[b]thiophen-2-yl(5-((2S,3R,4S,6S)-3,4-dihydroxy-6-(hydroxymethyl)tetrahydro-2H-pyran-2-yl)-4-hydroxy-2-methoxyphenyl)methanone], the inhibition at 3 µM against human SGLT2 and against human SGLT1 was 0% in each case.

Turning to `Cc1cc(O)c([C@@H]2O[C@H](CO)C[C@H](O)[C@H]2O)cc1C(=O)c1cc2ccccc2s1` [Cpd 6, benzo[b]thiophen-2-yl(5-((2S,3R,4S,6S)-3,4-dihydroxy-6-(hydroxymethyl)-tetrahydro-2H-pyran-2-yl)-4-hydroxy-2-methylphenyl)methanone], the inhibition at 3 µM on human SGLT2 and against human SGLT1 was 0% throughout.

With `C=C(c1cc2ccccc2s1)c1cc([C@@H]2O[C@H](CO)C[C@H](O)[C@H]2O)c(O)cc1OC` [Cpd 7, (2S,3R,4S,6S)-2-(5-(1-(benzo[b]thiophen-2-yl)vinyl)-2-hydroxy-4-methoxyphenyl)-6-(hydroxymethyl)tetrahydro-2H-pyran-3,4-diol], the inhibition at 3 µM is 6% against human SGLT2 and 43% against human SGLT1.

Take `C=C(c1cc2ccccc2s1)c1cc([C@@H]2O[C@H](CO)C[C@H](O)[C@H]2O)c(O)cc1C` [Cpd 8, (2S,3R,4S,6S)-2-(5-(1-(benzo[b]thiophen-2-yl)vinyl)-2-hydroxy-4-methylphenyl)-6-(hydroxymethyl)tetrahydro-2H-pyran-3,4-diol]: the figures for the inhibition at 3 µM against human SGLT2 and on human SGLT1 were 25% and 41%, respectively.

On to `COc1cc(O)c([C@@H]2O[C@H](CO)C[C@H](O)[C@H]2O)cc1C1(c2cc3ccccc3s2)CC1` [Cpd 9, (2S,3R,4S,6S)-2-(5-(1-(benzo[b]thiophen-2-yl)cyclopropyl)-2-hydroxy-4-methoxyphenyl)-6-(hydroxymethyl)tetrahydro-2H-pyran-3,4-diol], for which the inhibition at 3 µM at human SGLT2 is 57%; at human SGLT1, 49%.

Regarding `Cc1cc(O)c([C@@H]2O[C@H](CO)C[C@H](O)[C@H]2O)cc1C1(c2cc3ccccc3s2)CC1` [Cpd 10, (2S,3R,4S,6S)-2-(5-(1-(benzo[b]thiophen-2-yl)cyclopropyl)-2-hydroxy-4-methylphenyl)-6-(hydroxymethyl)tetrahydro-2H-pyran-3,4-diol], the IC50 was 223 nM against human SGLT2 and over 3000 nM against human SGLT1.

On human SGLT2, `CCc1cc(O)c([C@@H]2O[C@H](CO)C[C@H](O)[C@H]2O)cc1Cc1cc2ccccc2s1` [Cpd 11, (2S,3R,4S,6S)-2-(5-(benzo[b]thiophen-2-ylmethyl)-4-ethyl-2-hydroxyphenyl)-6-(hydroxymethyl)tetrahydro-2H-pyran-3,4-diol] registered an IC50 of 61 nM. Further, on human SGLT1, the inhibition at 3 µM was determined as 95%.

`OC[C@@H]1C[C@H](O)[C@@H](O)[C@H](c2cc(Cc3cc4ccccc4s3)c(C3CC3)cc2O)O1` [Cpd 12, (2S,3R,4S,6S)-2-(5-(benzo[b]thiophen-2-ylmethyl)-4-cyclopropyl-2-hydroxyphenyl)-6-(hydroxymethyl)tetrahydro-2H-pyran-3,4-diol]: the figures for the IC50 against human SGLT2 and at human SGLT1 were 683 nM and 99 nM, respectively.

In turn, `N#Cc1cc(O)c([C@@H]2O[C@H](CO)C[C@H](O)[C@H]2O)cc1Cc1cc2ccccc2s1` [Cpd 13, 2-(benzo[b]thiophen-2-ylmethyl)-4-((2S,3R,4S,6S)-3,4-dihydroxy-6-(hydroxymethyl)tetrahydro-2H-pyran-2-yl)-5-hydroxybenzonitrile] registered an inhibition at 0.3 µM on human SGLT2 of 73%. Besides, 3 µM produced 57% inhibition against human SGLT1.

On to `COc1cc(O)c([C@@H]2O[C@H](CO)C[C@H](O)[C@H]2O)cc1C(C)(C)c1cc2ccccc2s1` [Cpd 14, (2S,3R,4S,6S)-2-(5-(2-(benzo[b]thiophen-2-yl)propan-2-yl)-2-hydroxy-4-methoxyphenyl)-6-(hydroxymethyl)tetrahydro-2H-pyran-3,4-diol], for which the inhibition at 0.3 µM was 54% against human SGLT2 and 46% against human SGLT1 (compound at 0.3 μM).

With `Cc1cc(O)c([C@@H]2O[C@H](CO)C[C@H](O)[C@H]2O)cc1C(C)(C)c1cc2ccccc2s1` [Cpd 15, (2S,3R,4S,6S)-2-(5-(2-(benzo[b]thiophen-2-yl)propan-2-yl)-2-hydroxy-4-methylphenyl)-6-(hydroxymethyl)tetrahydro-2H-pyran-3,4-diol], 0.3 µM produced 25% inhibition at human SGLT2. On human SGLT1, this molecule yielded an inhibition at 3 µM of 52%.
